Source: patent EP0462621A2, “Use of particular compounds for manufacture of pharmaceutical formulations for treatment against various parasites, mycoplasmas, other indications and other infections” (Prendergast, Patrick Thomas, priority 1990, dated 1991)

What was measured:
L donovani [1] = test: Leishmania promastigote (PRO) in-vitro screen; type: cell-based; settings: Ld.
Description: (§1) Following initial infection, the amastigote is the only form present in the mammalian host, surviving and dividing in various macrophage populations. Differences between the promastigote and amastigote in form and habitat are not matched by known biochemical dissimilarities. However, the drug susceptibility of the cultured promastigote, used in many early chemotherapy screens, contrasts markedly with that of the amastigote (see Table 1, below), most importantly to the clinically used pentavalent antimonials - sodium stibogluconate (Pentostam) and meglumine antimoniate (Glucantime).
(§2) Amastigotes of Leishmania can be cultivated in a wide range of mammalian cells, some of which may be used in in-vitro screens. These include (1) a Sticker dog sarcoma (fibroblast) cell line, (2) transformed rodent macrophage cell lines, (3) primary isolated mouse peritoneal macrophages (MP mo), and (4) human monocyte-derived macrophages (HM mo). The methods are similar for all models. Amastigote or promastigote infected cells are maintained in a medium containing the drug for 4-7 days, at 37 C for L. donovani and 33-35 C for L. major and L. mexicana. Drug activity is then assessed by counting (I) the number of infected host cells and/or (II) the number of amastigotes/100 host cells.
(§3) In-vitro and in-vivo models were used to test activities of a selection of many compounds. Those activities are summarized in Tables 1-3, showing variation between systems and species. Activities measured in the MP mo and HM mo models have shown the best correlation with results obtained in hamster and mouse models.

L major/L mexicana [2] = test: Leishmania promastigote (PRO) in-vitro screen; type: cell-based; settings: Lm.
Description: as §1, §2, §3

L donovani [3] = test: Amastigote-promastigote (AM-PRO) transformation, in-vitro; type: cell-based; settings: Ld.
L donovani [4] = test: Amastigotes (AM) in cell lines, in-vitro; type: cell-based; settings: Ld., Amastigote; further: key: - no/poor activity,; + fair/moderate activity,; ++ good/excellent activity
Description: as §2, §3

L major/L mexicana [5] = test: Amastigotes (AM) in cell lines, in-vitro; type: cell-based; settings: Lm., Amastigote; further: key: - no/poor activity,; + fair/moderate activity,; ++ good/excellent activity
Description: as §2, §3

L donovani [6] = test: Amastigotes (AM) in mouse or human macrophages (mos), in-vitro; type: cell-based; settings: Ld., Amastigote
Description: as §2, §3

L major/L mexicana [7] = test: as above; type: cell-based; settings: Lm., Amastigote
Description: as §2, §3

L donovani [8] = test: Leishmania mouse/hamster models, in-vivo; settings: Ld. Further: key: - no/poor activity,; + fair/moderate activity,; ++ good/excellent activity.
Description: as §3

L major/L mexicana [9] = test: Leishmania mouse/hamster models, in-vivo; settings: Lm. Further: key: - no/poor activity,; + fair/moderate activity,; ++ good/excellent activity.
Description: as §3

L major/L mexicana [10] = test: Amastigote-promastigote (AM-PRO) transformation, in-vitro; type: cell-based; settings: Lm.
T. cruzi [11] = test: T. cruzi epimastigote (EPI) in-vitro screen; type: cell-based
Procedure: (§5) In-vitro chemotherapy screens have for many years used models involving three stages of the T. cruzi life cycle: • (1) Epimastigote. Dividing populations are easily cultivated in a range of defined and semi-defined media, but are equivalent to a vector stage of the life cycle. • (2) Trypomastigote. These are isolated from a rodent host and can be maintained as a non-dividing population for 24-48 h in media. • (3) Amastigote. Dividing populations can be cultivated in muscle cells, fibroblasts and macrophages, following infection with trypomastigotes. After the initial infection, there is normally a period of 4-5 days during which the amastigotes divide before transforming, via the epimastigote stage, back to trypomastigotes which escape from the cell. Drug activity is measured during this 4-5 day period. A dividing host cell population, low infection rate, and the presence of trypomastigotes in the overlay can complicate the interpretation of results.

T. cruzi [12] = test: T. cruzi trypomastigote (TRY) in-vitro screen; type: cell-based
Procedure: as §5

T. cruzi [13] = test: T. cruzi intracellular amastigote (AM) in-vitro screen; type: cell-based
Procedure: Dividing populations can be cultivated in muscle cells, fibroblasts and macrophages, following infection with trypomastigotes. After the initial infection, there is normally a period of 4-5 days during which the amastigotes divide before transforming, via the epimastigote stage, back to trypomastigotes which escape from the cell. Drug activity is measured during this 4-5 day period. A dividing host cell population, low infection rate, and the presence of trypomastigotes in the overlay can complicate the interpretation of results.
Intracellular amastigote models can use a range of muscle (skeletal and cardiac) and fibroblast (e.g. HeLa, HePa) cell lines, macrophages, and chick embryo cells. […] To overcome the problems of overgrowth of the monolayer and a low percentage of infected cells, often associated with the use of cell lines, irradiated rat L6 myoblasts are used.

T. cruzi [14] = test: T. cruzi mouse model, in-vivo
Description: as §3

[15] = system: T.b. brucei, T.b. gambiense and T.b. rhodesiense; test: Procyclic trypomastigote (TRY) in-vitro screen; type: cell-based; further: key: - no/poor activity,; + fair/moderate activity,; ++ good/excellent activity
Procedure: (§4) Primary screening for new trypanocides has made extensive use of rodent systems, in which host survival time is a simple indicator of drug activity. In-vitro screens have used a variety of trypomastigote types (see Table 3, below). […] Most early in-vitro screens employed a short test in which bloodstream trypomastigotes were isolated from an infected rodent and maintained for up to 24 h in a simple drug-containing media. Two significant modifications of this technique include maintaining isolated bloodstream trypomastigotes in drug-containing media for 3-4 hours at 37° C in micro-titre plates and their subsequent viability assessed by the uptake of radiolabelled precursors or motility and infectivity to mice.
as §3

[16] = system: T.b. brucei, T.b. gambiense and T.b. rhodesiense; test: Isolated bloodstream trypomastigote (TRY) in-vitro screen; type: cell-based
Procedure: as §4
In-vitro studies on isolated bloodstream trypomastigotes were also used in the rational biochemical approaches towards the chemotherapy of T. brucei infections involving inhibitors of carbohydrate catabolism salicyl hydroxamic acid plus glycerol), of polyamine synthesis (methylgyoxal bis-guanylhydrazone and - DFMO), and of surface coat glycoprotein synthesis (Tunicamycin). In these studies, activity of the compounds are shown in-vitro and in-vivo, whereas the sensitivity of isolated bloodstream trypomastigotes to toxic oxygen radicals generated by naphthoquinones was not shown by the parasites in mice. The activity of the standard anti-trypanosomals-melarsoprol, pentamidine and suramin and tested compounds according to the present invention in in-vitro systems is shown in Table 3.
as §3

[17] = system: T.b. brucei, T.b. gambiense and T.b. rhodesiense; test: Cultivated bloodstream trypomastigote (TRY) in-vitro screen; type: cell-based
Description: Culture systems developed in the last decade have used mammalian cell feeder layers to support the growth of dividing populations of bloodstream trypomastigotes of T. brucei spp. Some of these systems have been used in chemotherapy studies, including; (1) bovine fibroblast culture - T. brucei models to test some standard and experimental compounds, (2) murine bone marrow culture - T.b. gambiense model to screen inosine analogues and platinum and hypolipidemic compounds, and (3) Microtus embryonic fibroblast culture (MEF) - T.b. rhodesiense model to test standard and experimental drugs. These systems give a good indication of in-vivo activity (see Table 3). They measure activity against dividing cells rather than specific macromolecular synthesis pathways and can be readily established in micro-titre plates. The MEF and bone marrow cell feeder layers can be used to grow a range of strains of T. brucei spp., offering the possibility of examining variations in drug susceptibility and resistance between strains. The presence of a feeder layer, however, limits the opportunities for the automation of these systems.
as §3

[18] = system: T.b. brucei, T.b. gambiense and T.b. rhodesiense; test: African trypanosomiasis mouse model, in-vivo
Procedure: as §4, §3

Row | Compound | Activity, PRO (L donovani [1]) | Activity, PRO (L major/L mexicana [2]) | Activity, AM-PRO transform-ation (L donovani [3]) | Activity, AM in cell lines (L donovani [4]) | Activity, AM in cell lines (L major/L mexicana [5]) | Activity, AM in mouse or human mos (L donovani [6]) | Activity, AM in mouse or human mos (L major/L mexicana [7]) | Activity, mouse/ hamster models (L donovani [8]) | Activity, mouse/ hamster models (L major/L mexicana [9]) | Activity, AM-PRO transform-ation (L major/L mexicana [10]) | activity, EPI (T. cruzi [11]; T. cruzi strain MR) | activity, EPI (T. cruzi [11]; T. cruzi strain Sonya) | activity, EPI (T. cruzi [11]; T. cruzi strain Y) | activity, TRY (T. cruzi [12]; T. cruzi strain Sonya) | activity, TRY (T. cruzi [12]; T. cruzi strain Y) | activity, intracellular AM (T. cruzi [13]; T. cruzi strain Sonya) | activity, intracellular AM (T. cruzi [13]; T. cruzi strain Y) | activity, mouse model (T. cruzi [14]; T. cruzi strain Sonya) | activity, mouse model (T. cruzi [14]; T. cruzi strain Y) | activity, procyclic TRY [15] | also measured
1 | CC(C)=CCNc1ncnc2c1ncn2[C@@H]1O[C@H](COP(=O)(O)O)[C@@H](O)[C@H]1O [N6-Isopentenyl Adenosine-5'monophosphate, N^6-(Δ^2-isopentenyl) adenosine-5'-monophosphate] | + + | - | + | - | + | + | + + | + | - | + + | +(Y,MR, Sonya) | +(Y,MR, Sonya) | +(Y,MR, Sonya) | ++(Y,Sonya) | ++(Y,Sonya) | ++(Y,Sonya) | ++(Y,Sonya) | + | ++ | + + | activity, isolated bloodstream TRY [16]: +; activity, cultivated bloodstream TRY [17]: +; activity, mouse model [18]: +
2 | OC[C@H]1O[C@@H](n2cnc3c(NCc4ccccc4)ncnc32)[C@H](O)[C@@H]1O [N6-Benzyladenosine, N^6-benzyladenosine] | + + | + + | + + | - | + | + | + | - | - | + + | +(Y,MR, Sonya) | +(Y,MR, Sonya) | +(Y,MR, Sonya) | + (Y,Sonya) | + (Y,Sonya) | + (Y,Sonya) | + (Y,Sonya) | +(Y)+(Sonya) | +(Y)+(Sonya) | + + | activity, cultivated bloodstream TRY [17]: + +; activity, mouse model [18]: + +
3 | OC[C@H]1O[C@@H](n2cnc3c(NCc4ccco4)ncnc32)[C@H](O)[C@@H]1O [Furfuryladenosine] | + + | + + | + + | - | + | + | + + | + | + | + + | ++(Y,MR, Sonya) | ++(Y,MR, Sonya) | ++(Y,MR, Sonya) | + (Y,Sonya) | + (Y,Sonya) | + (Y,Sonya) | + (Y,Sonya) | + | ++ | + | activity, isolated bloodstream TRY [16]: + +; activity, cultivated bloodstream TRY [17]: +
